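These data come from cells grown in 96-well plates and exposed to compound for 48 hours at five concentrations. GI50 is the concentration that inhibits growth by half.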 Activity calls are given as the source filed them. No stated cut-off is given here; in the data, active = GI50 up to about 1.1 µM and inactive = higher.
Tests used:
Assay in all cases: NCI tumour cell line growth inhibition, 48 h
RXF 393 = test system: RXF 393
NCI-H460 = test system: NCI-H460
IGROV-1 = test system: IGROV-1
XF498 = test system: XF498
HCT-15 = test system: HCT-15
A498 = test system: A498
ACHN = test system: ACHN
M14 = test system: M14
MOLT-4 = test system: MOLT-4
SNB-19 = test system: SNB-19
786-0 = test system: 786-0
UACC-257 = test system: UACC-257
NCI-H522 = test system: NCI-H522
Malme-3M = test system: Malme-3M
SK-MEL-5 = test system: SK-MEL-5
T47D = test system: T47D
BT-549 = test system: BT-549
MDA-MB-231 = test system: MDA-MB-231
MDA-MB-435 = test system: MDA-MB-435
Hs-578T = test system: Hs-578T

| SMILES | GI50 (RXF 393) | GI50 (NCI-H460) | GI50 (IGROV-1) | GI50 (XF498) | GI50 (HCT-15) [µM] | GI50 (A498) | GI50 (ACHN) | GI50 (M14) | GI50 (MOLT-4) | GI50 (SNB-19) | GI50 (786-0) | GI50 (UACC-257) | GI50 (NCI-H522) | GI50 (Malme-3M) | GI50 (SK-MEL-5) | GI50 (T47D) | GI50 (BT-549) | GI50 (MDA-MB-231) | GI50 (MDA-MB-435) | GI50 (Hs-578T) |
| --- | --- | --- | --- | --- | --- | --- | --- | --- | --- | --- | --- | --- | --- | --- | --- | --- | --- | --- | --- | --- |
| CCOC1c2nc3ccccc3nc2-c2ccccc2N1C(C)=O (stereo not drawn) | 28.3 µM (inactive) | > 100 µM (inactive) | > 100 µM (inactive) | > 100 µM (inactive) | > 100 | > 100 µM (inactive) | > 100 µM (inactive) | > 100 µM (inactive) | > 100 µM (inactive) | > 100 µM (inactive) | 56.8 µM (inactive) | > 100 µM (inactive) |  |  |  |  |  |  |  |  |
| CC1(C)c2ccccc2N2O[C@@H]3C(=O)N(c4ccccc4)C(=O)[C@@H]3C21c1ccccc1 (stereo partly drawn) | 14.6 µM (inactive) |  | > 100 µM (inactive) | > 100 µM (inactive) | > 100 |  |  | > 100 µM (inactive) | 47.8 µM (inactive) | > 100 µM (inactive) | > 100 µM (inactive) | > 100 µM (inactive) | 41.1 µM (inactive) | > 100 µM (inactive) | > 100 µM (inactive) |  |  |  |  |  |
| CN/N=C(\C)C(CN1CCCCC1)C(C1=C(O)c2ccccc2OC1)c1ccccc1 (stereo not drawn) | > 100 µM (inactive) | > 100 µM (inactive) | 78.3 µM (inactive) | > 100 µM (inactive) | > 100 | > 10 µM (inactive) | > 100 µM (inactive) | > 100 µM (inactive) | 39.4 µM (inactive) | > 100 µM (inactive) | > 100 µM (inactive) | > 100 µM (inactive) | > 100 µM (inactive) | 91.8 µM (inactive) | > 100 µM (inactive) |  |  |  |  |  |
| CNC(=O)CN(CC(=O)NC)C(=O)NC | > 100 µM (inactive) |  | > 100 µM (inactive) | > 100 µM (inactive) | > 100 | > 100 µM (inactive) | > 100 µM (inactive) | > 100 µM (inactive) | > 100 µM (inactive) | > 100 µM (inactive) | > 100 µM (inactive) | > 100 µM (inactive) | > 100 µM (inactive) | > 100 µM (inactive) | > 100 µM (inactive) |  |  |  |  |  |
| COC(=O)C1=C(C(=O)OC)SC(=CC#CC=C2SC(C(=O)OC)=C(C(=O)OC)S2)S1 |  | 21 µM (inactive) | 18.2 µM (inactive) | 4.53 µM (inactive) | 12.6 | 19.4 µM (inactive) | 11.8 µM (inactive) | 13.6 µM (inactive) | > 100 µM (inactive) | 6.41 µM (inactive) | 5.79 µM (inactive) | > 54.3 µM (inactive) | 24.4 µM (inactive) | 15.7 µM (inactive) | 27 µM (inactive) |  |  |  |  |  |
| CN1C(=O)n2c(nc3ccccc32)C(N=[N+]=[N-])(N=[N+]=[N-])C1=O (stereo not drawn) | > 100 µM (inactive) | > 100 µM (inactive) | > 100 µM (inactive) | > 100 µM (inactive) | 99.1 | > 100 µM (inactive) | > 100 µM (inactive) | > 100 µM (inactive) | > 100 µM (inactive) | > 100 µM (inactive) | > 100 µM (inactive) | > 100 µM (inactive) | > 100 µM (inactive) | > 100 µM (inactive) | > 100 µM (inactive) |  |  |  |  |  |
| N/N=C1\C(=O)N(CCc2ccccc2)C(=O)C1C(=O)NCCc1ccccc1 (stereo not drawn) |  |  | > 100 µM (inactive) | > 100 µM (inactive) |  |  | > 100 µM (inactive) | > 100 µM (inactive) | > 100 µM (inactive) | > 100 µM (inactive) | > 100 µM (inactive) | > 100 µM (inactive) | > 100 µM (inactive) | > 100 µM (inactive) |  |  |  |  |  |  |
| COc1cc2c(cc1OC)-c1cc3cc(OC)c(OC)cc3n1CC2 |  | 36 µM (inactive) | 90.8 µM (inactive) | 18.9 µM (inactive) |  | 14.4 µM (inactive) | 31.6 µM (inactive) | 23.4 µM (inactive) | > 100 µM (inactive) | 25.8 µM (inactive) | 23.4 µM (inactive) | 56 µM (inactive) | 32.5 µM (inactive) | 23.8 µM (inactive) |  |  |  |  |  |  |
| CC(C)C(=O)NS(=O)(=O)c1ccccc1 | > 100 µM (inactive) | > 100 µM (inactive) | > 100 µM (inactive) | > 100 µM (inactive) |  | > 100 µM (inactive) | > 100 µM (inactive) | > 100 µM (inactive) | > 100 µM (inactive) | > 100 µM (inactive) | > 100 µM (inactive) | > 100 µM (inactive) | > 100 µM (inactive) | > 100 µM (inactive) |  |  |  |  |  |  |
| COC(=O)c1cc(O)ccc1NC(=O)c1ccc(O)cc1 |  | > 100 µM (inactive) | > 100 µM (inactive) | > 100 µM (inactive) | > 100 |  | > 100 µM (inactive) | > 100 µM (inactive) | > 100 µM (inactive) | > 100 µM (inactive) | > 100 µM (inactive) | > 100 µM (inactive) | 41.4 µM (inactive) | > 100 µM (inactive) | > 100 µM (inactive) |  |  |  |  |  |
| N#C/N=C(/NCCc1c[nH]c2ccccc12)Oc1ccccc1 | > 100 µM (inactive) | 37.1 µM (inactive) | > 100 µM (inactive) | 21.1 µM (inactive) | 56.8 |  | 27.4 µM (inactive) | 78.5 µM (inactive) | 37.1 µM (inactive) | 93.5 µM (inactive) | 8.57 µM (inactive) | > 100 µM (inactive) |  |  | 35.6 µM (inactive) |  |  |  |  |  |
| O=S(=O)(c1cc(Cl)ccc1Cl)N1CCN(S(=O)(=O)c2cc(Cl)ccc2Cl)CC1 | > 100 µM (inactive) | > 100 µM (inactive) | > 100 µM (inactive) |  | > 100 | > 100 µM (inactive) | > 100 µM (inactive) | > 100 µM (inactive) | > 100 µM (inactive) | > 100 µM (inactive) | > 100 µM (inactive) | > 100 µM (inactive) | > 100 µM (inactive) | > 100 µM (inactive) | > 100 µM (inactive) | > 100 µM (inactive) | > 100 µM (inactive) | > 100 µM (inactive) | > 100 µM (inactive) | 19.8 µM (inactive) |
| Nc1n[n+]([O-])c2ccccc2[n+]1[O-] [TIRAPAZAMINE] | 57.5 µM (inactive) | 49.7 µM (inactive) | 75.5 µM (inactive) | 44.4 µM (inactive) | > 100 |  | 48.6 µM (inactive) | > 100 µM (inactive) | 37.4 µM (inactive) | > 100 µM (inactive) | > 100 µM (inactive) | 72.4 µM (inactive) | 99.8 µM (inactive) | 50.4 µM (inactive) | 40.5 µM (inactive) |  |  |  |  |  |
| COC1/C=C\OC2(C)Oc3c(C)c(O)c4c(O)c(c(CN(C)C)c(O)c4c3C2=O)NC(=O)/C(C)=C\C=C/C(C)C(O)C(C)C(O)C(C)C(OC(C)=O)C1C (stereo not drawn) | 37.8 µM (inactive) | 32.1 µM (inactive) | 33.7 µM (inactive) |  | 44.2 | > 100 µM (inactive) | 61.9 µM (inactive) | 19.4 µM (inactive) | 15.5 µM (inactive) | 42.9 µM (inactive) | 27.4 µM (inactive) | 22.4 µM (inactive) | 16.2 µM (inactive) | 19.3 µM (inactive) | 18.5 µM (inactive) | 29 µM (inactive) | 31.2 µM (inactive) | 28.8 µM (inactive) | 26.4 µM (inactive) | 30.7 µM (inactive) |
| CC(C)OP(=O)(NC(=S)c1ccccc1)OC(C)C |  | 23.4 µM (inactive) | > 100 µM (inactive) | > 100 µM (inactive) | > 100 | 43 µM (inactive) | > 100 µM (inactive) | > 100 µM (inactive) | 80.7 µM (inactive) | > 100 µM (inactive) | > 100 µM (inactive) | > 100 µM (inactive) |  | > 100 µM (inactive) | 34.5 µM (inactive) |  |  |  |  |  |
| Cc1cc2c(cc1Br)C1(C)CCC(C)C1(C)O2 (stereo not drawn) | 15.7 µM (inactive) | 23.7 µM (inactive) | 47.6 µM (inactive) | 22.5 µM (inactive) | 36.6 | 34.6 µM (inactive) | 31.2 µM (inactive) | 32.3 µM (inactive) | 17.9 µM (inactive) | 36 µM (inactive) | 23.1 µM (inactive) | 30.5 µM (inactive) |  | 16.9 µM (inactive) | 29.1 µM (inactive) |  |  |  |  |  |
| N#CC1(C#N)C2(c3ccccc3)OC(c3ccccc3)(c3cc4ccccc4cc32)C1(C#N)C#N | 5.51 µM (inactive) | 18 µM (inactive) | 14.8 µM (inactive) |  | 12.2 | 19.5 µM (inactive) | 11.8 µM (inactive) | 10.6 µM (inactive) | 1.71 µM (inactive) | 15.5 µM (inactive) | 8.51 µM (inactive) | 27.5 µM (inactive) | 3.01 µM (inactive) | 18.1 µM (inactive) | 14.3 µM (inactive) | 13.6 µM (inactive) | > 10 µM (inactive) | 15.7 µM (inactive) | 17.1 µM (inactive) | 25.8 µM (inactive) |
| COc1cc(Cn2c(=S)ss/c2=N\C(=S)N(C)C)cc(OC)c1OC | 2.79 µM (inactive) | 4.16 µM (inactive) | 17.2 µM (inactive) |  | 3.57 | 22.6 µM (inactive) | 7.06 µM (inactive) | 4.73 µM (inactive) | 8.91 µM (inactive) | 46.1 µM (inactive) | 7.36 µM (inactive) | 10.6 µM (inactive) | 2.3 µM (inactive) | 3.21 µM (inactive) | 2.26 µM (inactive) | > 86.7 µM (inactive) | > 20.7 µM (inactive) | 15.1 µM (inactive) | 1.26 µM (inactive) | 2.7 µM (inactive) |
| COc1c2nc(CCl)[nH]c(=O)c2c(OC)c2nc(CCl)[nH]c(=O)c12 | > 100 µM (inactive) | > 100 µM (inactive) | > 100 µM (inactive) | > 100 µM (inactive) | > 100 |  | > 100 µM (inactive) | > 100 µM (inactive) | > 100 µM (inactive) | > 100 µM (inactive) | > 100 µM (inactive) | > 100 µM (inactive) | > 100 µM (inactive) | > 100 µM (inactive) | > 100 µM (inactive) |  |  |  |  |  |
